Earlier results on 1 compound are cited in patent publication US20130236595A1, “FOOD PRODUCT PROVIDING SUSTAINED BLOOD LEVELS OF EXOGENOUS SUBSTANCES” (NESTEC S.A., priority 2003, published 2013).

“Also recorded” adds a separate entry of the source.

The conditions of data set [1]: caffeine in blood plasma.

Turning to `Cn1c(=O)c2c(ncn2C)n(C)c1=O` [caffeine], the “threshold value for stimulation” value in data set [1] is on record as “about 2 mg/l”. Further, the “time of peak in caffeine level in blood” value (after a cup of coffee is consumed) is reported as “after about an hour; also recorded: after one hour”. For the same compound, the half-life of caffeine (in adults) was 3 to 7 h.
